These results are taken from ChEMBL document CHEMBL4028802, “DILIrank: the largest reference drug list ranked by the risk for developing drug-induced liver injury in humans” (Drug Discov Today, 2016).

Structures are written as SMILES. Positions of bridges follow the written chain, without caps; N, C: chain ends. Non-standard residues stand in square brackets, D forms with d. Residues, ends and D or L forms follow the SMILES beside them. hArg = N=C(N)NCCCC[C@H](N)C(=O)O; Mpa = O=C(O)CCS

The species entered for data set [1] is Homo sapiens. Description: Liver toxicity in human assessed as induction of drug-induced liver injury by measuring severity class index.
For data set [2], the species on record is Homo sapiens. Description: Liver toxicity in human assessed as induction of drug-induced liver injury by measuring verified drug-induced liver injury concern status.
For DILI severity class in this document: key of the grades not given here.

As for `O=C(O)c1ccc(-n2nc(-c3ccccc3O)nc2-c2ccccc2O)cc1` [DEFERASIROX], in data set [1], the DILI_severity_class is reported as 7. Moreover, the DILI_Concern result in data set [2] is listed as “Most-Dili-Concern”.

In the case of `CNCCC(Oc1ccc(C(F)(F)F)cc1)c1ccccc1` (centres undefined) [FLUOXETINE], the DILI_severity_class in data set [1] stood at 3. Further, in data set [2], the DILI_Concern entry is “Less-Dili-Concern”.

As for `CN1CC[C@]23c4c5ccc(O)c4O[C@H]2C(=O)CC[C@H]3[C@H]1C5` [HYDROMORPHONE], in data set [1], the DILI_severity_class is 3. In addition, the DILI_Concern entry in data set [2] is “Ambiguous-Dili-Concern”.

On to `CN(C)CCC=C1c2ccccc2COc2ccccc21` [DOXEPIN], for which the DILI_severity_class in data set [1] turned out to be 4. Besides, the DILI_Concern entry in data set [2] is given as “Less-Dili-Concern”.

As to `CC(COc1ccccc1)NC(C)C(O)c1ccc(O)cc1` (centres undefined) [ISOXSUPRINE], the DILI_severity_class in data set [1] amounted to 0. Besides, the DILI_Concern entry in data set [2] is on record as “No-Dili-Concern”.

For `COc1cc(C)c(/C=C/C(C)=C/C=C/C(C)=C/C(=O)O)c(C)c1C` [ACITRETIN], the DILI_severity_class in data set [1] is listed as 5. Moreover, in data set [2], the DILI_Concern entry is reported as “Most-Dili-Concern”.

As to `COc1cc2nc(N3CCN(C(=O)C4CCCO4)CC3)nc(N)c2cc1OC` (centres undefined) [TERAZOSIN], in data set [1], the DILI_severity_class is 0. Moreover, in data set [2], the DILI_Concern entry is “No-Dili-Concern”.

For the molecule `N=C(N)NCCCC[C@@H]1NC(=O)CCSSC[C@@H](C(N)=O)NC(=O)[C@@H]2CCCN2C(=O)[C@H](Cc2c[nH]c3ccccc23)NC(=O)[C@H](CC(=O)O)NC(=O)CNC1=O` [EPTIFIBATIDE] ([Mpa][hArg]GDWPC-NH2; disulfide 1-7), the DILI_severity_class in data set [1] was 0. Further, the DILI_Concern entry in data set [2] is on record as “No-Dili-Concern”.

On to `N[C@@H](Cc1ccc(N(CCCl)CCCl)cc1)C(=O)O`, for which the DILI_severity_class in data set [1] amounted to 5. Further, the DILI_Concern result in data set [2] was “Less-Dili-Concern”.

Consider `OCCOCCN1CCN(C(c2ccccc2)c2ccc(Cl)cc2)CC1` (centres undefined) [HYDROXYZINE], for which the DILI_severity_class in data set [1] was 0. Moreover, the DILI_Concern entry in data set [2] is given as “No-Dili-Concern”.

For `Nc1nnc(-c2cccc(Cl)c2Cl)c(N)n1` [LAMOTRIGINE], the DILI_severity_class in data set [1] was determined as 7. In addition, the DILI_Concern result in data set [2] is on record as “Most-Dili-Concern”.

In the case of `COc1ccc2cc([C@H](C)C(=O)O)ccc2c1` [NAPROXEN], the DILI_severity_class in data set [1] is reported as 3. For the same molecule, the DILI_Concern result in data set [2] is recorded as “Less-Dili-Concern”.

For the molecule `CCN(CC)CCNC(=O)c1ccc(N)cc1` [PROCAINAMIDE], the DILI_severity_class in data set [1] is recorded as 4. Moreover, in data set [2], the DILI_Concern result is recorded as “Less-Dili-Concern”.

Consider `CN(C)[C@@H]1C(O)=C(C(N)=O)C(=O)[C@@]2(O)C(O)=C3C(=O)c4c(O)ccc(Cl)c4[C@@H](O)[C@H]3C[C@@H]12` [DEMECLOCYCLINE], for which the DILI_severity_class in data set [1] is given as 3. Further, the DILI_Concern result in data set [2] is “Ambiguous-Dili-Concern”.

As for `C#C[C@@]1(OC(C)=O)CC[C@H]2[C@@H]3CCC4=CC(=O)CC[C@@H]4[C@H]3CC[C@@]21C`, in data set [1], the DILI_severity_class is 0. Also, in data set [2], the DILI_Concern result is “No-Dili-Concern”.

`CCCC1O[C@@H]2C[C@H]3[C@@H]4CCC5=CC(=O)C=C[C@]5(C)[C@H]4[C@@H](O)C[C@]3(C)[C@]2(C(=O)CO)O1` (some centres undefined) [BUDESONIDE]: the DILI_severity_class in data set [1] is given as 0. In addition, the DILI_Concern entry in data set [2] is on record as “No-Dili-Concern”.

`CNC[C@H](O)[C@@H](O)[C@H](O)[C@H](O)CO.CNC[C@H](O)[C@@H](O)[C@H](O)[C@H](O)CO.O=C(CCCCC(=O)Nc1c(I)cc(I)c(C(=O)O)c1I)Nc1c(I)cc(I)c(C(=O)O)c1I` [IODIPAMIDE MEGLUMINE]: in data set [1], the DILI_severity_class came out at 0. For the same molecule, the DILI_Concern result in data set [2] was “No-Dili-Concern”.
